Legend:
Assay in all cases: Large panel kinase profiling
Type in all cases: biochemical
Conditions in all cases: 1 μM test article, 1 mM ATP
[1] = target: BLK (Homo sapiens, UniProt P51451)
Outline: (§1)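 With ATP fixed at 1 mM, each kinase was exposed to 1 μM compound in a PhosphoSens CSox-Sensor reaction. Sealed plates were incubated at 30° C. and read in kinetic mode.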

[2] = target: CAMK1A (Homo sapiens, UniProt Q14012)
Outline: as §1

[3] = target: T1, YES (Homo sapiens, UniProt P07947)
T1 construct: AssayQuant Technologies, Inc. (contract laboratory that ran the panel)
Outline: as §1

[4] = target: T2, FLT3 (Homo sapiens, UniProt P36888)
T2 construct: AssayQuant Technologies, Inc. (service provider)
T2 sequence (P36888 27-993): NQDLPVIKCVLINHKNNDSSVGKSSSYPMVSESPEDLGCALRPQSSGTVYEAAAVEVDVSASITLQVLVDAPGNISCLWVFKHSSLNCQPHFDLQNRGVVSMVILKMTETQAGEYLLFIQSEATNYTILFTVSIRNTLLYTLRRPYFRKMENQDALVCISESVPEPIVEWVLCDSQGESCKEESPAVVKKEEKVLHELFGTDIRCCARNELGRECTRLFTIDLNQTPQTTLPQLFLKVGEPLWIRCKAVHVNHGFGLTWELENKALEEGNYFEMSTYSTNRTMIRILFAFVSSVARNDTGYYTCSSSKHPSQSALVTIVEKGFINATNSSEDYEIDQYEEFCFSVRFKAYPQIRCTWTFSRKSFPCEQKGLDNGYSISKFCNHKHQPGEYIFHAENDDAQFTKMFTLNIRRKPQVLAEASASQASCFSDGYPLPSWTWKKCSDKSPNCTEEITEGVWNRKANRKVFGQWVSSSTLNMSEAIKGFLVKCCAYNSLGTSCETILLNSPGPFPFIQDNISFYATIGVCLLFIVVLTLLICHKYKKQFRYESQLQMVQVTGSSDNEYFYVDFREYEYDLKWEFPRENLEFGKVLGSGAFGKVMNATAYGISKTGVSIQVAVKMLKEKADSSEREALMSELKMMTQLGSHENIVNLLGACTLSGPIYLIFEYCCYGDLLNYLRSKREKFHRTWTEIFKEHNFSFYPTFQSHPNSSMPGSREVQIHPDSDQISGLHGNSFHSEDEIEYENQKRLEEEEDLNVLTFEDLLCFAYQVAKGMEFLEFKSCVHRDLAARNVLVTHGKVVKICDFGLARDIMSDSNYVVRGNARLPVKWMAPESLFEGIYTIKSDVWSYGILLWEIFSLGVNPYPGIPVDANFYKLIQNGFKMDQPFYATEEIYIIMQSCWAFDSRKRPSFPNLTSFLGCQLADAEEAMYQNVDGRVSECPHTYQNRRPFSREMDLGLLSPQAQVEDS
Outline: as §1

[5] = target: CAMK1G (Homo sapiens, UniProt Q96NX5)
Outline: as §1

[6] = target: T3, GRK1 (Homo sapiens, UniProt Q15835)
T3 construct: AssayQuant Technologies, Inc. (service provider)
T3 sequence (Q15835 1-563): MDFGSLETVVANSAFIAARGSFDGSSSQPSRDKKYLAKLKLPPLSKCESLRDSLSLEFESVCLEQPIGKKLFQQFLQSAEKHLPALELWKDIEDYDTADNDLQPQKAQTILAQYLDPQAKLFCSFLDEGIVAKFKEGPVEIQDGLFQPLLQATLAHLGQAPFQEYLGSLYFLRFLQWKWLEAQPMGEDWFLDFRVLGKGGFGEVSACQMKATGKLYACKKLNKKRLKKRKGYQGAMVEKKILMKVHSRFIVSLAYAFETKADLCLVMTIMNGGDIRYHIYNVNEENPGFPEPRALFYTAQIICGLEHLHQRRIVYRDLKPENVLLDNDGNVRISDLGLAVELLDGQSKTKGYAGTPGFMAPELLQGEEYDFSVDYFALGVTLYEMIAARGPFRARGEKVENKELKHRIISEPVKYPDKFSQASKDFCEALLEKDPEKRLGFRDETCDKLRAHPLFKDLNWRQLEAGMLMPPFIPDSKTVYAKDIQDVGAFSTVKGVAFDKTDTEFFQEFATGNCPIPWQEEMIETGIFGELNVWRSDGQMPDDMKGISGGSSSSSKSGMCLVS
Outline: as §1

[7] = target: T4, GRK6 (Homo sapiens, UniProt P43250)
T4 construct: AssayQuant Technologies, Inc. (service provider)
Outline: as §1

T4 sequence (P43250 whole entry, species assumed): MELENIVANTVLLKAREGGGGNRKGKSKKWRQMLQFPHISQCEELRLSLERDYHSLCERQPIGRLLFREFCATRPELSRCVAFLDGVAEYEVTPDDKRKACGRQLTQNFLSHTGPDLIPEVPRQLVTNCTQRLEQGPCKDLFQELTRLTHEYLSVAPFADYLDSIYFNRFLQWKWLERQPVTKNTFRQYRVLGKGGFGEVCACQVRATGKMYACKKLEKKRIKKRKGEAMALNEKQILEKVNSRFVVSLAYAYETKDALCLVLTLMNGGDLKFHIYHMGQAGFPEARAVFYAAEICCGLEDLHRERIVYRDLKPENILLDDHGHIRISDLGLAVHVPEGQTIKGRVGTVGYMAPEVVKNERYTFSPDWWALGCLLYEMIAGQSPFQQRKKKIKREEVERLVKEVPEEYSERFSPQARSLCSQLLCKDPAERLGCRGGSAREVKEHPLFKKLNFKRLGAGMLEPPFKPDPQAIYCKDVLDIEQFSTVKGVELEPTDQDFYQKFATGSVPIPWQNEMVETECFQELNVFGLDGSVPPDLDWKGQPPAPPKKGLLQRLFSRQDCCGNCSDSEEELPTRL
T1 sequence (P07947 whole entry, species assumed): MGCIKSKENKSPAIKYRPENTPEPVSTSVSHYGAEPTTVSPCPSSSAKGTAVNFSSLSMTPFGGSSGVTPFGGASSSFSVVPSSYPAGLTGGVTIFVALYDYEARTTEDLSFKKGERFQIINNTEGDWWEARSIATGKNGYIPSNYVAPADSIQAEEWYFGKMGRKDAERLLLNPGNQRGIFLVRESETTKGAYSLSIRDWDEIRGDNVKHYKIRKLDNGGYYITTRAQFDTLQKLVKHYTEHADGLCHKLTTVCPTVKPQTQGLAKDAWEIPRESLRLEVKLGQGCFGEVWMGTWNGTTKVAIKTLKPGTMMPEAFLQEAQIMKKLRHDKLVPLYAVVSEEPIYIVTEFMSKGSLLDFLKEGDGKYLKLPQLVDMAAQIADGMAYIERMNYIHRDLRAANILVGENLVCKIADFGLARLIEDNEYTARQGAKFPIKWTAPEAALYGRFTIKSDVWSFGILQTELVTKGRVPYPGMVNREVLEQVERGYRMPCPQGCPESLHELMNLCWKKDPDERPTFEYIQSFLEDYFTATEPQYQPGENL
Sequence of CAMK1A (Q14012 whole entry): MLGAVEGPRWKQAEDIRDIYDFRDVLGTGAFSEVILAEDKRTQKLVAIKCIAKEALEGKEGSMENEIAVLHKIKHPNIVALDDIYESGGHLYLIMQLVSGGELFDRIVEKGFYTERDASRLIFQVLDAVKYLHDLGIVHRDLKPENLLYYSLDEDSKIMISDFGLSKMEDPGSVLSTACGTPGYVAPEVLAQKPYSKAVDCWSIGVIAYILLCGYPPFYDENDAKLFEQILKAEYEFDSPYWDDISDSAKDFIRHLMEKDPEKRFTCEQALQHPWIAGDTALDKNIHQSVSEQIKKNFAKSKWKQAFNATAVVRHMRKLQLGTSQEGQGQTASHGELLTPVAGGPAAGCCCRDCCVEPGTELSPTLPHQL
Sequence of BLK (P51451 whole entry): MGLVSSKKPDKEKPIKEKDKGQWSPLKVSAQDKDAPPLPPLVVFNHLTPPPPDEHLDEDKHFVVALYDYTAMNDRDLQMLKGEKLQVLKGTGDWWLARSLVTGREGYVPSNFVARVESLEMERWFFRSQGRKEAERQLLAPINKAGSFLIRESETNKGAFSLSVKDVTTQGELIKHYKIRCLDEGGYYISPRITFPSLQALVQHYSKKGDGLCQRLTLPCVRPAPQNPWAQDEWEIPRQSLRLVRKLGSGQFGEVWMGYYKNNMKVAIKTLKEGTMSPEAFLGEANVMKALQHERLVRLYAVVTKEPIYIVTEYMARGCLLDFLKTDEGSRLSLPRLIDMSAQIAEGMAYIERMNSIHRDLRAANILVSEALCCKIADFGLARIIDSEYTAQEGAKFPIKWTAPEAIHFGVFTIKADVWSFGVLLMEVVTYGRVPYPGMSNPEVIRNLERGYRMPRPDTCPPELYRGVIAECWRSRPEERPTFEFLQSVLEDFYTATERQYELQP
Sequence of CAMK1G (Q96NX5 whole entry): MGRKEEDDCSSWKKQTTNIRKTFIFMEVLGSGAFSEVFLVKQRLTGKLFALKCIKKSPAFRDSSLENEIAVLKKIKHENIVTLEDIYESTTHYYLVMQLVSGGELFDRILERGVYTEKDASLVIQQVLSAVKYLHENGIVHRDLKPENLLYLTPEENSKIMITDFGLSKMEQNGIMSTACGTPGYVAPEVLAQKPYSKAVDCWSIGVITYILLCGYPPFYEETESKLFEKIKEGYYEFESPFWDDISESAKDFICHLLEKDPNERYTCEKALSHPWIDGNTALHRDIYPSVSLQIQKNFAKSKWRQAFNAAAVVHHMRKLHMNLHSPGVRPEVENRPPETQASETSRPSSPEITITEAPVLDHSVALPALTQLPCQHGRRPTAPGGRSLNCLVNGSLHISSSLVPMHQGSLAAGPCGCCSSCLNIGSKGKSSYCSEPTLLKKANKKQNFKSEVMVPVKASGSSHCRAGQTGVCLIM

`C=CC(=O)N1CCCC(c2c(F)cc(C(N)=O)c3[nH]c4c(c23)CCCCC4)C1` (single isomer, unassigned) [Compound 5-6] was tested, and the inhibition at 1 µM [1] was 30.3%, the inhibition at 1 µM [2] was 24.4% and the inhibition at 1 µM [3] was 8.8%. It also gave an inhibition at 1 µM [4] of 2.2%, an inhibition at 1 µM [5] of 15.6% and an inhibition at 1 µM [6] of 16.4%. It also gave an inhibition at 1 µM [7] of 8%.
`C=CC(=O)N1CCC[C@@H](c2c(F)cc(C(N)=O)c3[nH]c4c(c23)CC2(CC4)CC2)C1` [Compound 6-2, (S)-5-(1-acryloylpiperidin-3-yl)-6-fluoro-1,2,4,9-tetrahydrospiro[carbazole-3,1′-cyclopropane]-8-carboxamide] was tested, and the inhibition at 1 µM [1] was 65.7%, the inhibition at 1 µM [2] was 34.5% and the inhibition at 1 µM [3] was 27%. The inhibition at 1 µM [4] was -9.4%, the inhibition at 1 µM [5] was 19.6% and the inhibition at 1 µM [6] was -46.1%. For the same compound, the inhibition at 1 µM [7] was -3.1%.
In the case of `C=CC(=O)N1CCC[C@@H](c2c(F)cc(C(N)=O)c3[nH]c4c(c23)CCC4)C1` [Compound 10-2, (S)-8-(1-acryloylpiperidin-3-yl)-7-fluoro-1,2,3,4-tetrahydrocyclo-penta[b]indole-5-carboxamide], the inhibition at 1 µM [1] is reported as -2.3%, the inhibition at 1 µM [2] is reported as 7.9% and the inhibition at 1 µM [3] is reported as 23.9%. It also gave an inhibition at 1 µM [4] of -4.6%, an inhibition at 1 µM [5] of 9.7% and an inhibition at 1 µM [6] of -1.4%. The inhibition at 1 µM [7] was -1.9%.

Reference: patent US20220009920A1 (GB005, Inc., priority 2020, published 2022)
